The record followed here is US7858621B2 (Amorepacific Corporation, priority 2006, dated 2010).

Each structure is given as a SMILES string.

T1 sequence (O35433 whole entry): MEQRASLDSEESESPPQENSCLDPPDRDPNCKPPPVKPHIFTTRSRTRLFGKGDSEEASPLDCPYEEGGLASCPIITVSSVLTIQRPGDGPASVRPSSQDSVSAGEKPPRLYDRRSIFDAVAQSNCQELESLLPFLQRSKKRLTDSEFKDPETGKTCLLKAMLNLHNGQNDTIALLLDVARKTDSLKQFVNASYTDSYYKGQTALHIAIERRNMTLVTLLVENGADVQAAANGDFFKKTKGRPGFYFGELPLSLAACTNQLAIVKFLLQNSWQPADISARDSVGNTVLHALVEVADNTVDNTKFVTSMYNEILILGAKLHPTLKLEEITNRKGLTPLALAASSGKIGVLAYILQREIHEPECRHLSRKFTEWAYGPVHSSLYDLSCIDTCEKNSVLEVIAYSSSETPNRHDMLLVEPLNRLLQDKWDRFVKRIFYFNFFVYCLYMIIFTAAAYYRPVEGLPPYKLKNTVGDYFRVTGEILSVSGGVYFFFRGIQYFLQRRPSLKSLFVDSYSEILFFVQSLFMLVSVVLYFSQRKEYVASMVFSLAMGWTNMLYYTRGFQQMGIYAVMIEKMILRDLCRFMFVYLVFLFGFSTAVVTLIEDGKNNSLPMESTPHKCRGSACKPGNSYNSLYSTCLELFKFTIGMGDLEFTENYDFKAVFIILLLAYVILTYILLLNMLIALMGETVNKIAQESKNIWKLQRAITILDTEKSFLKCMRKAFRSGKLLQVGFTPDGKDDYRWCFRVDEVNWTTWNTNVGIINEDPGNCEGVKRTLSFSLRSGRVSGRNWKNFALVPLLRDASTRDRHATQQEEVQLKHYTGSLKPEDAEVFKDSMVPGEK

The assay has as its target T1, vanilloid receptor (Rattus norvegicus, UniProt O35433).
T1 construct: DRG nerve cells from the primary culture of 2 days were equilibrated; endogenous in cells; host or cells: primary culture of dorsal root ganglion neurons from neonatal SD rats
Put plainly: 45Ca influx test in cultured neonatal rat DRG neurons, inhibition of capsaicin response. In kind it is cell-based. The conditions noted are these: neonatal rat DRG neurons, capsaicin 0.5 μM, 45Ca influx; read-out: Antagonist Calcium Uptake Test (IC50). The gist of the method: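 Neonatal SD rat DRG neurons, cultured 2 days with NGF (200 ng/ml) and Ara-C, were washed in HEPES (10 mM, pH 7.4)-buffered Ca/Mg-free HBSS. Test compound was added with capsaicin (final 0.5 μM) and 45Ca (10 μCi/ml) for 10 min at room temperature; 45Ca uptake counted by scintillation after SDS elution.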
Consider `CCCCCc1nc(C(F)(F)F)ccc1/C=C/C(=O)NCc1cc(C)c(NS(C)(=O)=O)c(F)c1` [Example 214, N-(3-Fluoro-4-methanesulfonylamino-5-methyl-benzyl)-3-(2-pentyl-6-trifluoromethyl)-pyridin-3-yl-acrylamide], for which the IC50 (as a rule, the midpoint of a concentration-inhibition curve) worked out at 98 nM.

In the case of `CCCCCc1nc(C(F)(F)F)ccc1/C=C/C(=O)N[C@H](C)c1ccc(NS(C)(=O)=O)c(F)c1` [Example 215, (R)—N-[1-(3-Fluoro-4-methanesulfonylamino-phenyl)-ethyl]-3-(2-pentyl-6-trifluoromethyl)-pyridin-3-yl-acrylamide], the IC50 was found to be 54 nM.

For `CCCS(=O)(=O)c1nc(C(F)(F)F)ccc1C=CC(=O)NCc1ccc(NS(C)(=O)=O)c(C)c1` [Example 216, N-(4-Methanesulfonylamino-3-methyl-benzyl)-3-[2-(propane-1-sulfonyl)-6-trifluoromethyl-pyridin-3-yl]-acrylamide], the IC50 worked out at 2000 nM.

Consider `CC(C)Nc1nc(C(F)(F)F)ccc1/C=C/C(=O)NCc1cc(F)c(NS(C)(=O)=O)c(F)c1` [Example 217, N-(3,5-Difluoro-4-methanesulfonylamino-benzyl)-3-(2-isopropylamino-6-trifluoromethyl-pyridin-3-yl)-acrylamide], for which the IC50 came out at 130 nM.

As for `CC(C)Nc1nc(C(F)(F)F)ccc1/C=C/C(=O)N[C@H](C)c1ccc(NS(C)(=O)=O)c(F)c1` [Example 218, (R)—N-[1-(3-Fluoro-4-methanesulfonylamino-phenyl)-ethyl]-3-(2-isopropylamino-6-trifluoromethyl-pyridin-3-yl)-acrylamide], the IC50 turned out to be 46 nM.

For the compound `Cc1cc(CNC(=O)/C=C/c2ccc(C(F)(F)F)nc2NC(C)C)ccc1NS(C)(=O)=O` [Example 219, 3-(2-Isopropylamino-6-trifluoromethyl-pyridin-3-yl)-N-(4-methanesulfonylamino-3-methyl-benzyl)-acrylamide], the IC50 was found to be 73 nM.

As for `Cc1cc(CNC(=O)/C=C/c2ccc(C(F)(F)F)nc2NC(C)C)cc(F)c1NS(C)(=O)=O` [Example 220, N-(3-Fluoro-4-methanesulfonylamino-5-methyl-benzyl)-3-(2-isopropylamino-6-trifluoromethyl-pyridin-3-yl)-acrylamide], the IC50 amounted to 71 nM.

`C#Cc1cc(CNC(=O)/C=C/c2ccc(C(F)(F)F)nc2NCCC)cc(F)c1NS(C)(=O)=O` [Example 221, N-(3-Ethynyl-5-fluoro-4-methanesulfonylamino-benzyl)-3-(2-propylamino-6-trifluoromethyl-pyridin-3-yl)-acrylamide]: the IC50 worked out at 23 nM.

For `CCCNc1nc(C(F)(F)F)ccc1/C=C/C(=O)NCc1cc(C)c(NS(C)(=O)=O)c(F)c1` [Example 223, N-(3-Fluoro-4-methanesulfonylamino-5-methyl-benzyl)-3-(2-propylamino-6-trifluoromethyl-pyridin-3-yl)-acrylamide], the IC50 worked out at 55 nM.

As for `CCCNc1nc(C(F)(F)F)ccc1/C=C/C(=O)N[C@H](C)c1ccc(NS(C)(=O)=O)c(F)c1` [Example 224, (R)—N-[1-(3-Fluoro-4-methanesulfonylamino-phenyl)-ethyl]-3-(2-propylamino-6-trifluoromethyl-pyridin-3-yl)-acrylamide], the IC50 came out at 16 nM.

On to `CCCNc1nc(C(F)(F)F)ccc1/C=C/C(=O)NCc1ccc(NS(C)(=O)=O)c(C)c1` [Example 225, N-(4-Methanesulfonylamino-3-methyl-benzyl)-3-(2-propylamino-6-trifluoromethyl-pyridin-3-yl)-acrylamide], for which the half-inhibitory concentration (IC50) came to 52 nM.

On to `CC(C)Cc1nc(C(F)(F)F)ccc1/C=C/C(=O)NCc1cc(F)c(NS(C)(=O)=O)c(F)c1` [Example 226, N-(3,5-Difluoro-4-methanesulfonylamino-benzyl)-3-(2-isobutyl-6-trifluoromethyl-pyridin-3-yl)-acrylamide], for which the IC50 came out at 85 nM.

With `CC(C)Nc1nc(C(F)(F)F)ccc1/C=C/C(=O)N[C@H](C)c1cc(F)c(NS(C)(=O)=O)c(F)c1` [Example 227, (R)—N-[1-(3,5-Difluoro-4-methanesulfonylamino-phenyl)-ethyl]-3-(2-isopropylamino-6-trifluoromethyl-pyridin-3-yl)-acrylamide], the IC50 was found to be 19 nM.

Consider `CCCCc1nc(C(F)(F)F)ccc1/C=C/C(=O)N[C@H](C)c1cc(F)c(NS(C)(=O)=O)c(F)c1` [Example 228, (R)-3-(2-Butyl-6-trifluoromethyl-pyridin-3-yl)-N-[1-(3,5-difluoro-4-methanesulfonylamino-phenyl)-ethyl]-acrylamide], for which the IC50 was found to be 12 nM.

For the compound `CCCNc1nc(C(F)(F)F)ccc1/C=C/C(=O)N[C@H](C)c1cc(F)c(NS(C)(=O)=O)c(F)c1` [Example 229, (R)—N-[1-(3,5-Difluoro-4-methanesulfonylamino-phenyl)-ethyl]-3-(2-propylamino-6-trifluoromethyl-pyridin-3-yl)-acrylamide], the IC50 amounted to 15 nM.

For `C#Cc1cc(CNC(=O)/C=C/c2ccc(C(F)(F)F)nc2C(C)C)cc(F)c1NS(C)(=O)=O` [Example 231, N-(3-Ethynyl-5-fluoro-4-methanesulfonylamino-benzyl)-3-(2-isopropyl-6-trifluoromethyl-pyridin-3-yl)-acrylamide], the IC50 came out at 76 nM.

In the case of `CC(C)c1nc(C(F)(F)F)ccc1/C=C/C(=O)NCc1cc(F)c(NS(C)(=O)=O)c(F)c1` [Example 232, N-(3,5-Difluoro-4-methanesulfonylamino-benzyl)-3-(2-isopropyl-6-trifluoromethyl-pyridin-3-yl)-acrylamide], the half-inhibitory concentration (IC50) stood at 190 nM.

Consider `Cc1cc(CNC(=O)/C=C/c2ccc(C(F)(F)F)nc2C(C)C)ccc1NS(C)(=O)=O` [Example 233, N-(4-methanesulfonylamino-3-methyl-benzyl)-3-(2-isopropyl-6-trifluoromethyl-pyridin-3-yl)-acrylamide], for which the IC50 is 80 nM.

Regarding `CC(C)c1nc(C(F)(F)F)ccc1/C=C/C(=O)N[C@H](C)c1ccc(NS(C)(=O)=O)c(F)c1` [Example 234, (R)—N-[1-(3-Fluoro-4-methanesulfonylamino-phenyl)-ethyl]-3-(2-isopropyl-6-trifluoromethyl-pyridin-3-yl)-acrylamide], the IC50 turned out to be 41 nM.

For `CCC(C)c1nc(C(F)(F)F)ccc1/C=C/C(=O)NCc1cc(F)c(NS(C)(=O)=O)c(F)c1` (stereo not drawn) [Example 235, N-(3,5-Difluoro-4-methanesulfonylamino-benzyl)-3-(2-sec-butyl-6-trifluoromethyl-pyridin-3-yl)-acrylamide], the IC50 was found to be 190 nM.

As for `C[C@@H](NC(=O)/C=C/c1ccc(C(F)(F)F)nc1CCc1ccccc1)c1cc(F)c(NS(C)(=O)=O)c(F)c1` [Example 236, (R)—N-[1-(3,5-Difluoro-4-methanesulfonylamino-phenyl)-ethyl]-3-(2-phenethyl-6-trifluoromethyl-pyridin-3-yl)-acrylamide], the IC50 came to 49 nM.

For `C[C@@H](NC(=O)/C=C/c1ccc(C(F)(F)F)nc1CCc1ccccc1)c1ccc(NS(C)(=O)=O)c(F)c1` [Example 237, (R)—N-[1-(3-Fluoro-4-methanesulfonylamino-phenyl)-ethyl]-3-(2-phenethyl-6-trifluoromethyl-pyridin-3-yl)-acrylamide], the IC50 was determined as 96 nM.

For the compound `CCCCNc1nc(C(F)(F)F)ccc1/C=C/C(=O)N[C@H](C)c1cc(F)c(NS(C)(=O)=O)c(F)c1` [Example 238, (R)-3-(2-Butylamino-6-trifluoromethyl-pyridin-3-yl)-N-[(1R)-(3,5-difluoro-4-methanesulfonylamino-phenyl)-ethyl]-acrylamide], the IC50 turned out to be 45 nM.

Regarding `C[C@@H](NC(=O)/C=C/c1ccc(C(F)(F)F)nc1N1CCCCC1)c1cc(F)c(NS(C)(=O)=O)c(F)c1` [Example 239, (R)—N-[1-(3,5-Difluoro-4-methanesulfonylamino-phenyl)-ethyl]-3-(2-piperid-1-yl-6-trifluoromethyl-pyridin-3-yl)-acrylamide], the IC50 was 120 nM.

Turning to `CCCCNc1nc(C(F)(F)F)ccc1/C=C/C(=O)N[C@@H](C)c1cc(F)c(NS(C)(=O)=O)c(F)c1` [Example 240, (S)-3-(2-Butylamino-6-trifluoromethyl-pyridin-3-yl)-N-[(1S)-(3,5-difluoro-4-methanesulfonylamino-phenyl)-ethyl]-acrylamide], the IC50 is 200 nM.

As for `CC[C@@H](C)c1nc(C(F)(F)F)ccc1/C=C/C(=O)NCc1ccc(NS(C)(=O)=O)c(C)c1` [Example 241, (R)-3-(2-sec-Butyl-6-trifluoromethyl-pyridin-3-yl)-N-1-(4-methanesulfonylamino-3-methyl-benzyl)-acrylamide], the IC50 turned out to be 34 nM.

Consider `CC(C)c1nc(C(F)(F)F)ccc1/C=C/C(=O)N[C@H](C)c1cc(F)c(NS(C)(=O)=O)c(F)c1` [Example 242, (R)—N-[1-(3,5-Difluoro-4-methanesulfonylamino-phenyl)-ethyl]-3-(2-isopropyl-6-trifluoromethyl-pyridin-3-yl)-acrylamide], for which the IC50 worked out at 25 nM.

`CCC(C)c1nc(C(F)(F)F)ccc1/C=C/C(=O)N[C@H](C)c1ccc(NS(C)(=O)=O)c(F)c1` (stereo partly drawn) [Example 243, (R)-3-(2-sec-Butyl-6-trifluoromethyl-pyridin-3-yl)-N-[1-(3-fluoro-4-methanesulfonylamino-phenyl)-ethyl]-acrylamide]: the IC50 was 41 nM.

`CCNc1nc(C(F)(F)F)ccc1/C=C/C(=O)N[C@H](C)c1cc(F)c(NS(C)(=O)=O)c(F)c1` [Example 244, (R)—N-[1-(3,5-Difluoro-4-methanesulfonylamino-phenyl)-ethyl]-3-(2-ethylamino-6-trifluoromethyl-pyridin-3-yl)-acrylamide]: the IC50 was determined as 67 nM.

Consider `CC(C)Cc1nc(C(F)(F)F)ccc1/C=C/C(=O)N[C@H](C)c1cc(F)c(NS(C)(=O)=O)c(F)c1` [Example 245, (R)—N-[1-(3,5-Difluoro-4-methanesulfonylamino-phenyl)-ethyl]-3-(2-isobutyl-6-trifluoromethyl-pyridin-3-yl)-acrylamide], for which the IC50 was 24 nM.
